Measurements reported in patent US11186588B2 (AYUMI PHARMACEUTICAL CORPORATION, priority 2017, dated 2021).

How the values were obtained:
IL-6 production = experiment: LPS-induced IL-6 production model test; assay type: in vivo, C57BL/6J mice; details: 10 mg/kg oral, 30 min before LPS 1 mg/kg i.p., serum IL-6 60 min after LPS, mice
Procedure: In order to evaluate the inhibitory activity of inflammatory cytokine production in the present compounds, LPS-induced IL-6 production model evaluation was carried out. The specific method is described below.
An appropriate amount of each compound was weighed, triturated with an agate mortar, and suspended or dissolved in 1% methyl cellulose solution to prepare 1 mg/mL solution.
C57BL/6J mice (male, Purchaser: Charles River Laboratories Japan, Inc.) were weighted, before divided into normal group, control group and each compound-administered group based on the measured body weight using a random number, wherein each group contained 6 samples. The mice were manually held in hands and forced orally administered the 1% methyl cellulose solution (normal and control group) or each administration solution comprising the compound (each compound-administered group) at a dose of 10 mL/kg into stomach using a feeding needle. After 30 minutes from administration of the 1% methyl cellulose solution or each compound administration solution, the mice were manually held in hands and intraperitoneally administered physiological saline (normal group) or LPS solution (control and each compound-administered group) at a dose of 1 mg/kg. After 60 minutes from administration of the LPS solution, whole blood was collected from the abdominal vena cava of each mouse under isoflurane inhalation anesthesia (available from Mylan Seiyaku Ltd.), and the mice were euthanized. The collected blood was allowed to stand at room temperature for one hour, and then centrifuged at 1,500 G for 10 minutes to collect a serum (supernatant). The collected serum was stored in a deep freezer set at −80° C. until the measurement of IL-6 in the serum. The IL-6 concentration in the serum of each mouse was measured by a commercially available kit (available from R&D systems, Cat No. M6000B), according to the protocol attached thereto.
The IL-6 production inhibition rate (%) was calculated by the following equation using Microsoft EXCEL 2010. IL-6 production inhibition rate (%)=100−{(average value of IL-6 concentration in serum of each compound-administered group)−(average value of IL-6 concentration in serum of normal group))/(average value of IL-6 concentration in serum of control group)−(average value of IL-6 concentration in serum of normal group)}×100

[1] = Pharmacokinetics test in rats (oral administration); assay type: in vivo, LEW/CrlCrlj rats; details: mean n = 4; for AUCinf / AUCt / Cmax / Kel / MRT / T1/2 / Tmax: oral 2 mg/mL solution at 5 mL/kg; for Concentration (ng/mL), sampling time 0.5 h / Concentration (ng/mL), sampling time 1 h / Concentration (ng/mL), sampling time 3 h / Concentration (ng/mL), sampling time 6 h: plasma; for Concentration (ng/mL), sampling time 0.5 h: 0.5 h after oral 2 mg/mL solution at 5 mL/kg; for Concentration (ng/mL), sampling time 1 h: 1 h after oral 2 mg/mL solution at 5 mL/kg; for Concentration (ng/mL), sampling time 3 h: 3 h after oral 2 mg/mL solution at 5 mL/kg; for Concentration (ng/mL), sampling time 6 h: 6 h after oral 2 mg/mL solution at 5 mL/kg
Procedure: In order to evaluate the transition of plasma concentration of the present compound after oral administration, pharmacokinetics was evaluated in rats. The specific method is described below.
Appropriate amounts of Example 71 and various salts thereof were weighed, triturated with an agate mortar, and suspended or dissolved in 1% methyl cellulose solution to 2 mg/mL (as a converted quantity of Example 71 considering the correction of purify).
LEW/CrlCrlj rats (male, purchased form Charles River Laboratories Japan, Inc.) were weighted, a random number based on the measured body weight was used to avoid difference in average body weight among groups, and the rats were divided into groups, wherein each groups contained 4 rats. The rats were manually held in hands and forced orally administered each administration solution comprising the compound at a dose of 5 mL/kg into stomach using a feeding needle. At 0.5, 1, 3, 6 and 24 hours after the administration of each administration solution comprising the compound, the rats were manually held in hands, and blood was collected from the jugular vein or subclavian vein using a heparin-treated injection syringe. The obtained blood was centrifuged at 1,500 G for 10 minutes, and plasma was collected as an actual sample. In addition, plasma was collected from rats before the administration of the compound in the same manner, which was used as blank plasma. The collected actual samples and blank plasma were stored in a freezer set at −70° C. until the measurement of the compound concentration. To 20 μL of each actual sample were added 20 μL of acetonitrile (available from Kishida Chemical Co., Ltd., Cat No. 140-00401), 100 μL of MilliQ water and 20 μL of the internal standard solution to prepare an analytical sample. In addition, to 20 μL of blank plasma were added 20 μL or 40 μL of acetonitrile (available from Kishida Chemical Co., Ltd., Cat No. 140-00401) and 100 μL of MilliQ water (a blank sample or a zero sample, respectively). A standard sample for a calibration curve was prepared by mixing 20 μL of blank plasma, 20 μL of the standard solution for a calibration curve in each concentration, 100 μL of MilliQ water and 20 μL of the internal standard solution. Whole amount of the prepared each sample was applied to a diatomaceous earth column for liquid-liquid extraction (available from Biotage, Cat No. 820-0200), tert-butyl methyl ether (available from Kanto Chemical Co., Inc., Cat No. 04418-5B) was added and eluted by natural dropping, and the obtained eluate was concentrated to dryness under a nitrogen stream. The residue was dissolved in the re-dissolved solution and 10 μL of each sample was injected into the LC/MS/MS apparatus.
LC/MS/MS analysis was carried out under the following conditions. Analytical column: Hydrosphere C18, 3 μm, 2.0 mm I.D.×50 mm (from YMC, Cat No. HS12S03-0502WT)
Flow rate: 0.3 mL/min. Column temperature: 50° C. Peak area calculation, peak area ratio calculation, preparation of calibration and quantification used in calculating the concentration for the LC/MS/MS analysis were carried out by Analyst ver.1.6.2 (available from AB Sciex). In addition, by using the obtained concentration measurement results, these were analyzed by Non-compartmental model of a pharmacokinetics analysis program WinNonlin ver.6.1 (Pharsight Corporation), and the pharmacokinetics parameter was calculated.

## CC(=O)Nc1ccc(C2=NN(Cc3cccnc3)c3nnc(C)n3-c3sc(C)c(C)c32)cc1.CC(=O)Nc1ccc(C2=NN(Cc3cccnc3)c3nnc(C)n3-c3sc(C)c(C)c32)cc1.O=C(O)/C=C/C(=O)O [0.5 Fumarate of Example 71]
IL-6 production
  LPS-induced IL-6 production (% Inhibition @ 10 mg/kg): 83.0%
[1]
  AUCinf: 54.47 ng·h/mL
  AUCt: 31.38 ng·h/mL
  Cmax: 15.70 ng/mL
  Kel: 0.35 h⁻¹
  MRT: 1.63 h
  T1/2: 3.02 h
  Tmax: 0.50 h
  Concentration (ng/mL), sampling time 0.5 h: 15.70 ng/mL
  Concentration (ng/mL), sampling time 1 h: 11.3 ng/mL
  Concentration (ng/mL), sampling time 3 h: 4.28 ng/mL
  Concentration (ng/mL), sampling time 6 h: 2.29 ng/mL

## CC(=O)Nc1ccc(C2=NN(Cc3cccnc3)c3nnc(C)n3-c3sc(C)c(C)c32)cc1.CC(=O)Nc1ccc(C2=NN(Cc3cccnc3)c3nnc(C)n3-c3sc(C)c(C)c32)cc1.O=C(O)CCC(=O)O [0.5 Succinate of Example 71]
IL-6 production
  LPS-induced IL-6 production (% Inhibition @ 10 mg/kg): 83.0%
[1]
  AUCinf: 106.41 ng·h/mL
  AUCt: 104.34 ng·h/mL
  Cmax: 79.8 ng/mL
  Kel: 0.64 h⁻¹
  MRT: 1.30 h
  T1/2: 1.10 h
  Tmax: 0.50 h
  Concentration (ng/mL), sampling time 0.5 h: 79.8 ng/mL
  Concentration (ng/mL), sampling time 1 h: 36.2 ng/mL
  Concentration (ng/mL), sampling time 3 h: 6.88 ng/mL
  Concentration (ng/mL), sampling time 6 h: 1.3 ng/mL

## CC(=O)Nc1ccc(C2=NN(Cc3cccnc3)c3nnc(C)n3-c3sc(C)c(C)c32)cc1.Cl [1 Hydrochloride of Example 71]
IL-6 production
  LPS-induced IL-6 production (% Inhibition @ 10 mg/kg): 82.7%
[1]
  AUCinf: 105.65 ng·h/mL
  AUCt: 114.07 ng·h/mL
  Cmax: 111.0 ng/mL
  Kel: 0.57 h⁻¹
  MRT: 1.12 h
  T1/2: 1.24 h
  Tmax: 0.50 h
  Concentration (ng/mL), sampling time 0.5 h: 111.0 ng/mL
  Concentration (ng/mL), sampling time 1 h: 34.0 ng/mL
  Concentration (ng/mL), sampling time 3 h: 6.75 ng/mL
  Concentration (ng/mL), sampling time 6 h: 1.5 ng/mL

## CC(=O)Nc1ccc(C2=NN(Cc3cccnc3)c3nnc(C)n3-c3sc(C)c(C)c32)cc1.O=C(O)/C=C\C(=O)O [1 Maleate of Example 71]
IL-6 production
  LPS-induced IL-6 production (% Inhibition @ 10 mg/kg): 82.0%
[1]
  AUCinf: 118.01 ng·h/mL
  AUCt: 115.41 ng·h/mL
  Cmax: 80.1 ng/mL
  Kel: 0.64 h⁻¹
  MRT: 1.27 h
  T1/2: 1.09 h
  Tmax: 0.50 h
  Concentration (ng/mL), sampling time 0.5 h: 80.1 ng/mL
  Concentration (ng/mL), sampling time 1 h: 42.9 ng/mL
  Concentration (ng/mL), sampling time 3 h: 7.69 ng/mL
  Concentration (ng/mL), sampling time 6 h: 1.66 ng/mL

## CC(=O)Nc1ccc(C2=NN(Cc3cccnc3)c3nnc(C)n3-c3sc(C)c(C)c32)cc1.Cc1ccc(S(=O)(=O)O)cc1 [1 Tosylate of Example 71]
IL-6 production
  LPS-induced IL-6 production (% Inhibition @ 10 mg/kg): 85.0%
[1]
  AUCinf: 101.11 ng·h/mL
  AUCt: 95.75 ng·h/mL
  Cmax: 62.1 ng/mL
  Kel: 0.52 h⁻¹
  MRT: 1.48 h
  T1/2: 1.42 h
  Tmax: 0.50 h
  Concentration (ng/mL), sampling time 0.5 h: 62.1 ng/mL
  Concentration (ng/mL), sampling time 1 h: 34.7 ng/mL
  Concentration (ng/mL), sampling time 3 h: 7.04 ng/mL
  Concentration (ng/mL), sampling time 6 h: 2.46 ng/mL
